Test results taken from US7105229B2, “Coated particles, methods of making and using” (priority 1997, dated 2006).

Test: Solubilization of Paclitaxel in nanostructured phase interior
Format: physicochemical
Method: A nanostructured liquid phase containing the antineoplastic drug Paclitaxel was prepared by solubilizing 0.045 grams of Paclitaxel, 0.57 grams of eugenol, […] of soy lecithin (Epikuron 200), 0.33 grams of glycerol, and 0.06 grams of cupric nitrate with 0.61 grams of methanol, and then evaporating off the methanol in an evaporating dish, with stirring during evaporation. An glycerol-rich upper solution was prepared by dissolving 0.09 grams of potassium iodide, 0.05 grams of Pluronic F-68, 0.44 grams of water and 1.96 grams of glycerol. After overlaying the upper phase, the system was sonicated, resulting in the dispersing of Paclitaxel-containing, nanostructured liquid phase into microparticles coated with crystalline iodine. […] The loading of Paclitaxel in the particle interior was quite high, namely on the order of 3 wt %, which in this case was so high that precipitation of some of the Paclitaxel within the interior of each particle may occur since the solubilization of Paclitaxel in this cubic phase at this high loading was metastable. […]

For CC(=O)O[C@H]1C(=O)[C@@]2(C)[C@H]([C@H](OC(=O)c3ccccc3)[C@]3(O)C[C@H](OC(=O)[C@H](O)[C@@H](NC(=O)c4ccccc4)c4ccccc4)C(C)=C1C3(C)C)[C@]1(OC(C)=O)CO[C@@H]1C[C@@H]2O [Paclitaxel], the “concentration of Paclitaxel in the interior at which solubilization is truly stable (thermodynamic equilibrium)” value (eugenol/soy lecithin/glycerol nanostructured phase of Example 36) was no more than 0.7% and the “time taken for precipitation of Paclitaxel at metastable loading” value (loading on the order of 3 wt % of interior) was “hours or even days”.
